This experiment has as its system SCLC strain SHP-77. The experiment can be described thus: MTT assay for cell survival, SCLC SHP-77 in vitro. The settings on record: ED50 for killing of SCLC strain SHP-77 in vitro, 4 days, 0 = no detectable activity, read-out: SCLC SHP-77 IC50. It is filed as cell-based, human.
With `CC1CN(C(=O)C(Cc2ccc(OCc3c(Cl)cccc3Cl)cc2)NC(=O)C(=Cc2ccccc2)c2ccccc2)CC(C)N1Cc1ccccc1` (stereo not shown) [Analog M-1662, Pcn-OC2Y-cDmbp], the concentration for half-maximal inhibition (IC50) is 20 µM.

As to `CC1CN(C(=O)C(Cc2ccc(OCc3c(Cl)cccc3Cl)cc2)NC(=O)C2CCn3c(C(=O)c4ccccc4)ccc32)CC(C)N1Cc1ccccc1` (stereo not shown) [Analog M-1664, Ktlc-OC2Y-cDmbp], the half-inhibitory concentration (IC50) is above 60 µM.

In the case of `O=C(c1ccccc1)c1ccc2n1CCC2C(=O)N[C@@H](Cc1ccc(OCc2c(Cl)cccc2Cl)cc1)C(=O)N1CCN(C/C=C/c2ccccc2)CC1` (stereo partly shown) [Analog M-1666, Ktlc-OC2Y-tCip], the IC50 was above 60 µM.

For the molecule `O=C(c1ccccc1)c1ccc2n1CCC2C(=O)N[C@@H](Cc1ccc(OCc2c(Cl)cccc2Cl)cc1)C(=O)NC1CCN(Cc2ccccc2)CC1` (stereo partly shown) [Analog M-1668, Ktlc-OC2Y-Abzp], the half-maximal inhibitory concentration (IC50) was 4.6 µM.

Regarding `O=C(N[C@@H](Cc1ccc(OCc2c(Cl)cccc2Cl)cc1)C(=O)N1CCN(c2ncccn2)CC1)C(=Cc1ccccc1)c1ccccc1` [Analog M-1670, Pcn-OC2Y-Pmpz], the IC50 came out at 50 µM.

Consider `O=C(CC12CC3CC(CC(C3)C1)C2)N[C@@H](Cc1ccc(OCc2c(Cl)cccc2Cl)cc1)C(=O)N1CCN(c2ncccn2)CC1` [Analog M-1672, Aaa-OC2Y-Pmpz], for which the IC50 was above 50 µM.

Regarding `CN1CCN(CCCNC(=O)[C@H](Cc2ccc(OCc3c(Cl)cccc3Cl)cc2)NC(=O)C2CCn3c(C(=O)c4ccccc4)ccc32)CC1` (stereo partly shown) [Analog M-1674, Ktlc-OC2Y-Amp], the 50% inhibitory concentration (IC50) turned out to be 3.2 µM.

As to `CN1CCN(CCCNC(=O)[C@H](Cc2ccc(OCc3c(Cl)cccc3Cl)cc2)NC(=O)C23CC4CC(CC(C4)C2)C3)CC1` [Analog M-1676, Aca-OC2Y-Amp], the 50% inhibitory concentration (IC50) was determined as 6.2 µM.

In the case of `O=C(NC1CCN(Cc2ccccc2)CC1)[C@H](Cc1ccc(OCc2c(Cl)cccc2Cl)cc1)NC(=O)C12CC3CC(CC(C3)C1)C2` [Analog M-1678, Aca-OC2Y-Abzp], the half-maximal inhibitory concentration (IC50) came out at 7.8 µM.

With `O=C([C@H](Cc1ccc(OCc2c(Cl)cccc2Cl)cc1)NC(=O)C12CC3CC(CC(C3)C1)C2)N1CCN(c2ncccn2)CC1` [Analog M-1680, Aca-OC2Y-Pmpz], the half-maximal inhibitory concentration (IC50) came to 33 µM.

Take `CC1(C)CC(NC(=O)[C@@H](Cc2ccc(OCc3c(Cl)cccc3Cl)cc2)NC(=O)C(=Cc2ccccc2)c2ccccc2)CC(C)(C)N1` [Analog M-1682, Pcn-D-OC2Y-Atmp]: the half-maximal inhibitory concentration (IC50) was 1.8 µM.

Consider `CC1(C)CC(NC(=O)C(NC(=O)C(=Cc2ccccc2)c2ccccc2)C2Cc3ccccc3C2)CC(C)(C)N1` (stereo not drawn) [Analog M-1684, Pcn-Igl-Atmp], for which the IC50 amounted to 4.2 µM.

With `CC1(C)CC(NC(=O)C(NC(=O)C2CCn3c(C(=O)c4ccccc4)ccc32)C2Cc3ccccc3C2)CC(C)(C)N1` (stereo not shown) [Analog M-1686, Ktlc-Igl-Atmp], the half-inhibitory concentration (IC50) is 14 µM.

For the molecule `COc1ccc2c(c1)c(CC(=O)NC(C(=O)NC1CC(C)(C)NC(C)(C)C1)C1Cc3ccccc3C1)c(C)n2C(=O)c1ccc(Cl)cc1` (stereo not shown) [Analog M-1688, Indo-Igl-Atmp], the IC50 was 4 µM.

Consider `O=C(C=Cc1c(F)c(F)c(F)c(F)c1F)NC(C(=O)N1CCN(Cc2c(F)c(F)c(F)c(F)c2F)CC1)C1Cc2ccccc2C1` (stereo not shown) [Analog M-1690, F5c-Igl-Pipz(F5b)], for which the half-inhibitory concentration (IC50) amounted to 25 µM.

Consider `CC1(C)CC(NC(=O)[C@H](Cc2ccc(OCc3c(Cl)cccc3Cl)cc2)NC(=O)C(Cl)Cl)CC(C)(C)N1` [Analog M-1692, Dcla-OC2Y-Atmp], for which the 50% inhibitory concentration (IC50) was determined as 7.2 µM.

Regarding `CN1CCN(CCCNC(=O)C(Cc2ccc(OCc3c(Cl)cccc3Cl)cc2)NC(=O)c2c3ccccc3nc3ccccc23)CC1` (stereo not shown) [Analog M-1700, Acrc-OC2Y-Amp], the IC50 is 7.3 µM.

Take `CN1CCN(CCCNC(=O)C(Cc2ccc(OCc3c(Cl)cccc3Cl)cc2)NC(=O)c2ccc3c(c2)C(=O)c2ccccc2C3=O)CC1` (stereo not shown) [Analog M-1702, Aq2c-OC2Y-Amp]: the IC50 came out at 3.6 µM.

As to `CC1(C)CC(NC(=O)C(Cc2ccc(OCc3c(Cl)cccc3Cl)cc2)NC(=O)c2cccnc2)CC(C)(C)N1` (stereo not shown) [Analog M-1704, Pyrc-OC2Y-Atmp], the half-maximal inhibitory concentration (IC50) was found to be 25 µM.

As to `CC1(C)CC(NC(=O)C(Cc2ccc(OCc3c(Cl)cccc3Cl)cc2)NC(=O)c2cccc3ccccc23)CC(C)(C)N1` (stereo not shown) [Analog M-1706, 1Nap-OC2Y-Atmp], the IC50 was 4.2 µM.

For the molecule `CC1(C)CC(NC(=O)C(Cc2ccc(OCc3c(Cl)cccc3Cl)cc2)NC(=O)Cc2cccc3ccccc23)CC(C)(C)N1` (stereo not shown) [Analog M-1708, 1Nala-OC2Y-Atmp], the IC50 was 7.2 µM.

Take `CC1(C)CC(NC(=O)C(Cc2ccc(OCc3c(Cl)cccc3Cl)cc2)NC(=O)Cc2ccc3ccccc3c2)CC(C)(C)N1` (stereo not shown) [Analog M-1710, 2Nala-OC2Y-Atmp]: the IC50 worked out at 1.7 µM.

On to `CC1(C)CC(NC(=O)C(Cc2ccc(OCc3c(Cl)cccc3Cl)cc2)NC(=O)c2cccnc2Cl)CC(C)(C)N1` (stereo not shown) [Analog M-1714, 2Cln-OC2Y-Atmp], for which the half-maximal inhibitory concentration (IC50) was 4 µM.

In the case of `Cc1nc2ccccc2c(C(=O)NC(Cc2ccc(OCc3c(Cl)cccc3Cl)cc2)C(=O)NC2CC(C)(C)NC(C)(C)C2)c1O` (stereo not shown) [Analog M-1716, Hmqc-OC2Y-Atmp], the concentration for half-maximal inhibition (IC50) turned out to be 7.2 µM.

Turning to `C=CC(=O)NC(NC(=O)C=C)C(=O)NC(Cc1ccc(OCc2c(Cl)cccc2Cl)cc1)C(=O)NC1CC(C)(C)NC(C)(C)C1` (stereo not shown) [Analog M-1718, Baaa-OC2Y-Atmp], the IC50 is above 60 µM.

Regarding `O=C(C=Cc1c(F)c(F)c(F)c(F)c1F)NC(Cc1c(F)c(F)c(F)c(F)c1F)C(=O)N1CCN(Cc2c(F)c(F)c(F)c(F)c2F)CC1` (stereo not shown) [Analog M-1730, F5c-F5F-Pipz(F5b)], the concentration for half-maximal inhibition (IC50) is 21 µM.

On to `O=C(C=Cc1c(F)c(F)c(F)c(F)c1F)NC(Cc1ccc(OCc2c(Cl)cccc2Cl)cc1)C(=O)N1CCN(Cc2c(F)c(F)c(F)c(F)c2F)CC1` (stereo not shown) [Analog M-1732, F5c-OC2Y-Pipz(F5b)], for which the half-inhibitory concentration (IC50) came to 24 µM.

`O=C(NC(Cc1ccc(OCc2c(Cl)cccc2Cl)cc1)C(=O)N1CCN(Cc2c(F)c(F)c(F)c(F)c2F)CC1)C(=Cc1ccccc1)c1ccccc1` (stereo not shown) [Analog M-1734, Pcn-OC2Y-Pipz(F5b)]: the half-inhibitory concentration (IC50) turned out to be 24 µM.

Consider `CC1(C)CC(NC(=O)C(Cc2ccc(OCc3c(Cl)cccc3Cl)cc2)NC(=O)C(C)(C)C)CC(C)(C)N1` (stereo not shown) [Analog M-1736, Piva-OC2Y-Atmp], for which the IC50 came out at 13 µM.

As to `COc1ccc2c(CC(=O)NC(Cc3ccc(OCc4c(Cl)cccc4Cl)cc3)C(=O)NC3CC(C)(C)NC(C)(C)C3)cc(=O)oc2c1` (stereo not shown) [Analog M-1744, Mcoa-OC2Y-Atmp], the IC50 stood at 7.1 µM.

On to `CCC(C(=O)NC(Cc1ccc(OCc2c(Cl)cccc2Cl)cc1)C(=O)NC1CC(C)(C)NC(C)(C)C1)C1CCCCC1` (stereo not shown) [Analog M-1746, Chbu-OC2Y-Atmp], for which the half-maximal inhibitory concentration (IC50) turned out to be 1.6 µM.

On to `CC(C)(C)CC(=O)NC(Cc1ccc(OCc2c(Cl)cccc2Cl)cc1)C(=O)NC1CC(C)(C)NC(C)(C)C1` (stereo not shown) [Analog M-1748, tBua-OC2Y-Atmp], for which the IC50 is 7.1 µM.

Take `CO[C@](C(=O)NC(Cc1ccc(OCc2c(Cl)cccc2Cl)cc1)C(=O)NC1CC(C)(C)NC(C)(C)C1)(c1ccccc1)C(F)(F)F` (stereo partly drawn) [Analog M-1750, (S)-MTPA-OC2Y-Atmp]: the IC50 is 4.2 µM.

As for `CO[C@@](C(=O)NC(Cc1ccc(OCc2c(Cl)cccc2Cl)cc1)C(=O)NC1CC(C)(C)NC(C)(C)C1)(c1ccccc1)C(F)(F)F` (stereo partly drawn) [Analog M-1752, (R)-MTPA-OC2Y-Atmp], the IC50 was 4 µM.

`CC1(C)CC(NC(=O)C(Cc2ccc(OCc3c(Cl)cccc3Cl)cc2)NC(=O)C(c2ccc(Cl)cc2)c2ccc(Cl)cc2)CC(C)(C)N1` (stereo not shown) [Analog M-1754, Bcpa-OC2Y-Atmp]: the IC50 came out at 1.5 µM.

In the case of `CC1(C)CC(NC(=O)C(Cc2cc(I)c(OCc3c(Cl)cccc3Cl)c(I)c2)NC(=O)C(=Cc2ccccc2)c2ccccc2)CC(C)(C)N1` (stereo not shown) [Analog M-1760, Pcn-OCIY-Atmp], the concentration for half-maximal inhibition (IC50) was 2 µM.

As to `CC1(C)CC(NC(=O)C(Cc2cc(I)c(OCc3c(Cl)cccc3Cl)c(I)c2)NC(=O)C(c2ccc(Cl)cc2)c2ccc(Cl)cc2)CC(C)(C)N1` (stereo not shown) [Analog M-1762, Bcpa-OCIY-Atmp], the IC50 was determined as 3 µM.

Consider `CC1(C)CC(NC(=O)C(Cc2ccc(-c3ccccc3)cc2)NC(=O)C(=Cc2ccccc2)c2ccccc2)CC(C)(C)N1` (stereo not drawn) [Analog M-1764, Pcn-Bip-Atmp], for which the IC50 amounted to 2.5 µM.

On to `CC1(C)CC(NC(=O)C(Cc2ccc(-c3ccccc3)cc2)NC(=O)C(Oc2ccc(Cl)cc2)Oc2ccc(Cl)cc2)CC(C)(C)N1` (stereo not shown) [Analog M-1766, Bcpoa-Bip-Atmp], for which the IC50 was 2 µM.

Take `CC1(C)CC(NC(=O)C2Cc3ccccc3CN2C(=O)C(=Cc2ccccc2)c2ccccc2)CC(C)(C)N1` (stereo not drawn) [Analog M-1770, Pcn-Tic-Atmp]: the concentration for half-maximal inhibition (IC50) came out at 5.4 µM.

As for `CC1(C)CC(NC(=O)C(Cc2ccc(OCc3c(Cl)cccc3Cl)cc2)NC(=O)C=Cc2ccc(-c3ccccc3)cc2)CC(C)(C)N1` (stereo not shown) [Analog M-1776, Pcin-OC2Y-Atmp], the IC50 worked out at 1.4 µM.

In the case of `Cc1ccccc1C=CC(=O)NC(Cc1ccc(OCc2c(Cl)cccc2Cl)cc1)C(=O)NC1CC(C)(C)NC(C)(C)C1` (stereo not shown) [Analog M-1778, Mca-OC2Y-Atmp], the IC50 was 1.5 µM.

Regarding `CC1(C)CC(NC(=O)C(Cc2ccc(OCc3c(Cl)cccc3Cl)cc2)NC(=O)CC=Cc2ccccc2)CC(C)(C)N1` (stereo not shown) [Analog M-1780, Saa-OC2Y-Atmp], the half-inhibitory concentration (IC50) is 1.8 µM.

For `CC1(C)CC(NC(=O)C(Cc2ccc(OCc3c(Cl)cccc3Cl)cc2)NC(=O)Cc2ccc(-c3ccccc3)cc2)CC(C)(C)N1` (stereo not shown) [Analog M-1782, Bipa-OC2Y-Atmp], the IC50 worked out at 3 µM.

On to `CC1(C)CC(NC(=O)C(Cc2ccc(F)cc2)NC(=O)C(=Cc2ccccc2)c2ccccc2)CC(C)(C)N1` (stereo not shown) [Analog M-1788, Pcn-PFF-Atmp], for which the IC50 is 2.3 µM.

Take `CC1(C)CC(NC(=O)C(Cc2ccc(C(F)(F)F)cc2)NC(=O)C(=Cc2ccccc2)c2ccccc2)CC(C)(C)N1` (stereo not shown) [Analog M-1790, Pcn-F3MF-Atmp]: the IC50 came out at 2.2 µM.

For the molecule `CC1(C)CC(NC(=O)C(Cc2ccc(-c3ccccc3)cc2)NC(=O)Cc2ccc(-c3ccccc3)cc2)CC(C)(C)N1` (stereo not shown) [Analog M-1796, Bipa-Bip-Atmp], the IC50 amounted to 1.5 µM.

With `CC(C)CC(NC(=O)OCC1c2ccccc2-c2ccccc21)C(=O)NC1CC(C)(C)NC(C)(C)C1` (stereo not shown) [Analog M-1798, Fmoc-Leu-Atmp], the 50% inhibitory concentration (IC50) turned out to be 7.6 µM.

For `CC1(C)CC(NC(=O)C(Cc2ccc(OCc3c(Cl)cccc3Cl)cc2)NC(=O)OCC2c3ccccc3-c3ccccc32)CC(C)(C)N1` (stereo not shown) [Analog M-1800, Fmoc-OC2Y-Atmp], the IC50 came out at 1.7 µM.

These data come from patent US7858349B2, “Anti-cancer compounds” (The Regents of the University of Colorado, priority 1999, dated 2010).
